According to patent US8592466B2, “Methods for treating conditions caused by higher-than-normal dopaminergic activity in basal ganglia” (Neuropill, Inc., priority 2008, dated 2013):

Columns and labels:
CCK-B receptor = target: T1, CCK-B receptor (Homo sapiens, UniProt P32239); experiment: CCK-B receptor antagonism (statement)
T1 sequence (P32239 1-447): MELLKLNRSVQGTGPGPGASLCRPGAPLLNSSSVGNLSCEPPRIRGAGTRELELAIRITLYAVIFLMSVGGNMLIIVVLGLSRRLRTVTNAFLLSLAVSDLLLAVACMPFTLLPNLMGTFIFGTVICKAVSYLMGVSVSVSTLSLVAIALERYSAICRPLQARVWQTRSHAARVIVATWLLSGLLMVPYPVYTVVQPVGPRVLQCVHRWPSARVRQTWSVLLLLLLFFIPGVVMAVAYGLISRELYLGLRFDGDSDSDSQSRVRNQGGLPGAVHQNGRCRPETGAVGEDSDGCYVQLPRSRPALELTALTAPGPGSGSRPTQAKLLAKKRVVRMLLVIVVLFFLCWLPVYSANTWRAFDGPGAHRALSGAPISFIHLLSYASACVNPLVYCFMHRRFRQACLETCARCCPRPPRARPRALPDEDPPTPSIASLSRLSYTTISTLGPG

DA release in striatum = experiment: [11C]-raclopride PET binding potential; format: in vivo, humans
Description: The Positron Emission Tomography (PET) scans were performed at the PET Center of Johns Hopkins University at Johns Hopkins Hospital, Baltimore, Md. During the PET scans three plasma samples of RPR 102681 were obtained from each subject under different dosing to measure RPR 102681 plasma concentration.
Each subject was also studied using Magnetic Resonance Imaging (MRI). Each subject received an individual thermoplastic mask molded to their face to allow for repositioning and stabilizing of the head during the MRI procedure and PET scan later. Marks, which localized the anatomical structures of interest, were placed on the mask following the MRI scan. In particular, each subject received an MRI with a sagittal scout view to localize the anterior commissure-posterior commissure (AC-PC) line to allow standardized positioning across the subjects based on the anatomical landmarks. […]
[^11C]-raclopride PET scans were preformed on days 6, 13, 20 and 27. […] To measure the specific binding of tracer, binding potential (BP) images were generated by a simplified reference model with a linear regression algorithm (Using a reference tissue model with spatial constraint to quantify [^11C] Pittsburgh compound B PET for early diagnosis of Alzheimer's disease, Yun Zhou, Susan M. Resnick, Weiguo Ye, Hong Fan, Daniel P. Holt, William E. Klunk, Chester A. Mathis, Robert Dannals, and Dean F. Wonga, NeuroImage 36 (2007) 298-312). […]
Subjects received PET scans with [^11C]-raclopride at baseline after uneventful completion of screening cocaine infusions and assignment to RPR 102681 or placebo treatment and on the fifth day of each RPR 102681 dose level (days 13, 20 and 27). After six subjects had completed all four PET scans these subjects' PET scan data was analyzed without breaking the blind to determine whether or not the PET scans should have been administered to any additional subjects. […]

CC(C(=O)O)c1cccc(NC(=O)NCC(=O)N2C(C(=O)OC(C)(C)C)CSC2c2ccccc2F)c1 [RPR 102681, (2S)-2-{3-[3-({[(2R,4R)-4-tert-Butoxycarbonyl-2-(2-fluorophenyl)]-3-thiazolidinyl}carbonylmethyl)ureido]phenyl}propionic acid]
CCK-B receptor antagonism (CCK-B receptor): potent CCK-B receptor antagonist
change in [11C]-raclopride binding potential (BP) (DA release in striatum; Dosing Schedule A, caudate nucleus, putamen or ventral striatum): no statistically significant change
change in [11C]-raclopride binding potential (BP) (DA release in striatum; Dosing Schedule B, dose 60-90 minutes prior to PET scan, caudate nucleus and ventral striatum, P<0.001): significantly increased BP
dopamine release inferred from raclopride binding potential (DA release in striatum; humans, PET brain imaging): inhibited dopamine release
